Measured values published in US20050215551A1, “1-[2H-1-benzopyran-2-one-8-yl]- piperazine derivatives for the treatment of movement disorders” (SOLVAY PHARMACEUTICALS B.V., priority 2004, published 2005).
Marks after values point to notes of the source that are not given here.

Assays:
[1] = test system: rats with unilateral 6-OHDA lesions; assay: Turning experiments in animals with unilateral 6-hydroxydopamine lesions of the substantia nigra compacta; assay type: in vivo
Experimental: Male rats (Wistar, Harlan, Netherlands; 400-500 g at time of experiment) are housed in a temperature (20-21±2° C.) and humidity controlled environment and receive water ad libitum except during experimental sessions. Food is restricted to approximately 15 g per rat per day. A 12-hour light-dark cycle (lights on 07.00-19.00 hour) is used.
Unilateral 6-hydroxydopamine (6-OH DA) lesions of the substantia nigra zona compacta are performed using a stereotaxic procedure. One hour prior to surgery, desmethyl-imipramine (20 mg/kg, i.p.) is administered to protect noradrenergic neurons. Rats are anaesthetized with a 3% halothane+0.8 l/min N2O+0.8 l/min O2-gas mixture at 1013 mbar. During surgery the gas mixture is adjusted to 1.75-2% halothane, 0.6 l/min N2O and 0.6 l/min O2. The incisor bar of the stereotaxic instrument (Kopf, Calif., USA) iss set at −3.3 mm, a burr hole was drilled over the substantia nigra pars compacta and 3 μl of a 6-OHDA solution (3.33 mg/ml) is injected (flow rate=0.75 μl/min; the needle is left in place for 4 minutes prior to withdrawal). Coordinates for this procedure are: anterior posterior +3.2 mm from the interaural line; medial/lateral +1.8 mm from the midline and ventral −8.2 from the skull surface. Animals are allowed to recover for approximately 2 weeks prior to testing. Good turning rats are defined as those which elicited at least 20 contralateral turns following amphetamine (2.5 mg/kg sc) in the 5 min time epoch beginning 25 min after administration and a mean of at least 20 contralateral turns recorded over a 30 min period after administration of apomorphine (0.25 mg/kg s.c.). Regular testing with apomorphine (0.1 or 0.25 mg/kg s.c.) is carried out to ensure the reliability of the animals in this procedure.
Eight commercially available (TSE systems Bad Homburg, Germany) ‘rotameter’ units (transparent plastic bowls; 57×55×52 cm) are used for testing. The rats are harnessed and tethered to a rotation sensor interfaced to an IBM compatible personal computer (using the TSE Rotameter Software v. 1.11, TSE systems Bad Homburg, Germany) which registers clockwise or counterclockwise movement. An internal software rotation filter of 10 is used.
Following statistical randomization of the treatment groups rats are pretreated with compounds of the invention (0.1-3 mg/kg p.o.) or vehicle (2 ml/kg) and placed in the rotameters the contralateral rotational behaviour is then measured. In further studies the effects of L-DOPA (1-10 mg/kg p.o.) are assessed on contralateral rotations. The peripheral decarboxylase inhibitor benserazide (30 mg/kg i.p.) can be used. In combination studies a range of L-DOPA (1-10) doses and doses of compounds of the invention (0.1-3 mg/kg p.o.) can be combined.

5-HT1A = target: T1, 5-HT1A (Rattus norvegicus, UniProt P19327); assay: In vivo 5-HT1A agonism: lower lip retraction (LLR); conditions: 60 minutes after oral administration
T1 construct: from tissue; host or cells: whole animal (in vivo behavioural test)
T1 sequence (P19327 whole entry): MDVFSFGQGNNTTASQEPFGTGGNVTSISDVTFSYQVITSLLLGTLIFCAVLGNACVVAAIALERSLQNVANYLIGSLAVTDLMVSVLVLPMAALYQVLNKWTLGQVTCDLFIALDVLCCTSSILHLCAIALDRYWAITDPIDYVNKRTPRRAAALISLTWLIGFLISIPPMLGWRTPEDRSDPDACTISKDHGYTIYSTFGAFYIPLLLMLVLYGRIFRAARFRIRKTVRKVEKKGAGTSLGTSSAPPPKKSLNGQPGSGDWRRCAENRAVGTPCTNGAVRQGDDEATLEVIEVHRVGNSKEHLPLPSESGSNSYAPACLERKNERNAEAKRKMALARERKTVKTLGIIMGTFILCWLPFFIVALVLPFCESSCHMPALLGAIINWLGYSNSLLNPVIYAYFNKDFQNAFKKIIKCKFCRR
Experimental: Lower lip retraction was measured according to the method described by Berendsen et al., (Pharmacol. Biochem. Behav. 33, (1989), 821-827).

5-HT2A = 5-HT2A (Homo sapiens, UniProt P28223); assay: Receptor binding 5-HT2A; conditions: radioligand [3H]-ketanserin, read-out: Ki(nM) Compound 1
5-HT2A, sequence (P28223 whole entry): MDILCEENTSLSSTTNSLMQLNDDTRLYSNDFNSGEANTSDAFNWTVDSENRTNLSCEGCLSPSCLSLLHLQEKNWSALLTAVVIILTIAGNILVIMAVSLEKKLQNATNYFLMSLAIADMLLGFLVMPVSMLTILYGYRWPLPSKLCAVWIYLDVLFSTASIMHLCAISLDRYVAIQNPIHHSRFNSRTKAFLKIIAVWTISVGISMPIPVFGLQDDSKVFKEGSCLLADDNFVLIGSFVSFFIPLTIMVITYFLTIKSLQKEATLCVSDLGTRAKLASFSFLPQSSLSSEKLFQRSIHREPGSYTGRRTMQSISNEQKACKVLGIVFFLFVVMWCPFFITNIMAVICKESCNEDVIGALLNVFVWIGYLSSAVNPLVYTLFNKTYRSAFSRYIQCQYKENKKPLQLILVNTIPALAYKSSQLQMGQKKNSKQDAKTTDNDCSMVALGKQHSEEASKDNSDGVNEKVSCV
Experimental: (§1) Receptor binding data were obtained by CEREP (128, rue Danton, 92500 Rueil-Malmaison, France) or at Solvay Pharmaceuticals B.V., using well documented standard procedures. Affinity for 5-HT1A receptors for instance, was determined by testing the ability of the compounds of the invention to displace [^3H]-2-(di-n-propylamino)-8-hydroxytetralin ([^3H]-8-OH-DPAT) from its specific binding sites in rat frontal cortex homogenates. This test is based on the method described by Gozlan et al. (Nature, 305, (1983), pages 140-142).
(§2) The binding data collected in the table below were either obtained by CEREP (128, rue Danton, 92500 Rueil-Malmaison, France) or at Solvay Pharmaceuticals B.V., using well documented standard procedures.

5-HT4 = 5-HT4 (Homo sapiens, UniProt Q13639); assay: Receptor binding 5-HT4; conditions: radioligand [3H]-GR 113808, read-out: Ki(nM) Compound 1
5-HT4, sequence (Q13639 whole entry): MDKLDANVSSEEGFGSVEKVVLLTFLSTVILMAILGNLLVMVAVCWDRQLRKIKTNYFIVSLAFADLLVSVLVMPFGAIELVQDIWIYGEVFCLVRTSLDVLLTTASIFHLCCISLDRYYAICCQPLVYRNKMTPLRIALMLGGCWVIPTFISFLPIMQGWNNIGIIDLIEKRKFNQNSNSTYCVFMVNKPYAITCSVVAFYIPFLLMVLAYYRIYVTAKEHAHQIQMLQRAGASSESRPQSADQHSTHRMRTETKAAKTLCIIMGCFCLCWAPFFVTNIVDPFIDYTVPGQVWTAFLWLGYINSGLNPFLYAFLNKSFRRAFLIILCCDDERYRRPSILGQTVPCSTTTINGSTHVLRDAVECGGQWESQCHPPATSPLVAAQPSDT
Experimental: as §1, §2

α1A-adrenergic = α1A-adrenergic (Rattus norvegicus, UniProt P43140); assay: Receptor binding α1A-adrenergic; conditions: radioligand [3H]-prazosin, read-out: Ki(nM) Compound 1
Experimental: as §1, §2

NAreuptake = NAreuptake (Homo sapiens, UniProt P23975); assay: Binding NA reuptake; conditions: radioligand [3H]-nisoxetin, read-out: Ki(nM) Compound 1
NAreuptake, sequence (P23975 whole entry): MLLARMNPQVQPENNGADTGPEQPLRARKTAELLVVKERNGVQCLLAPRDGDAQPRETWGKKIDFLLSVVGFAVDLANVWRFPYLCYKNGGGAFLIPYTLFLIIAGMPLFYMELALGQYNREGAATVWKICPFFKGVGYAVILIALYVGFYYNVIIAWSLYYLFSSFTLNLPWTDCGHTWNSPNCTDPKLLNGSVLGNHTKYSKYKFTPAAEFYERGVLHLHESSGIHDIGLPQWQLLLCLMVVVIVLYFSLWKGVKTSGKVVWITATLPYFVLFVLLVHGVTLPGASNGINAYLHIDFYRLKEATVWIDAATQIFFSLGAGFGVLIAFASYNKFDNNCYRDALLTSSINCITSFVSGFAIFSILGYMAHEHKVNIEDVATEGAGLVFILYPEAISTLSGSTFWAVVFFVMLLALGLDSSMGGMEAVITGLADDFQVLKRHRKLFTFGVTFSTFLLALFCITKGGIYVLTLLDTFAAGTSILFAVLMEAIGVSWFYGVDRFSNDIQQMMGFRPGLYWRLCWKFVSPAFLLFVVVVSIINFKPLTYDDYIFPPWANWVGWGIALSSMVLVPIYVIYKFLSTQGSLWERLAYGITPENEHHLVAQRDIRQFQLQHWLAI
Experimental: as §1, §2

Muscarine-M1 = Muscarine-M1 (Homo sapiens, UniProt P11229); assay: Receptor binding Muscarine-M1; conditions: radioligand [3H]-pirenzepine, read-out: Ki(nM) Compound 1
Muscarine-M1, sequence (P11229 whole entry): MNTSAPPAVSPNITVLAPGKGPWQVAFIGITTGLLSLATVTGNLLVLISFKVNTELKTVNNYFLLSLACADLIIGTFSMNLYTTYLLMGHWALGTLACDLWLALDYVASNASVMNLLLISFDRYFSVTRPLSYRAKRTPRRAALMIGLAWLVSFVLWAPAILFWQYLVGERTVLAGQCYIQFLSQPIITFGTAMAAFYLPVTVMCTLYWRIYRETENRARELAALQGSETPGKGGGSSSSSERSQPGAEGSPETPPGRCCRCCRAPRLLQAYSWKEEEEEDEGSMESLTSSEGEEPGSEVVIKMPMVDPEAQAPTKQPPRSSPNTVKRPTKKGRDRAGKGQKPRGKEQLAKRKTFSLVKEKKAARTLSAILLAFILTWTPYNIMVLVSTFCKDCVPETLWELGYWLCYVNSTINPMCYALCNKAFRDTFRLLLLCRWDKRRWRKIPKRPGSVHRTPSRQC
Experimental: as §1, §2

δ-opiate = δ-opiate (Rattus norvegicus, UniProt P33533); assay: Receptor binding δ-opiate; conditions: radioligand [3H]-DPDPE, read-out: Ki(nM) Compound 1
δ-opiate, sequence (P33533 whole entry): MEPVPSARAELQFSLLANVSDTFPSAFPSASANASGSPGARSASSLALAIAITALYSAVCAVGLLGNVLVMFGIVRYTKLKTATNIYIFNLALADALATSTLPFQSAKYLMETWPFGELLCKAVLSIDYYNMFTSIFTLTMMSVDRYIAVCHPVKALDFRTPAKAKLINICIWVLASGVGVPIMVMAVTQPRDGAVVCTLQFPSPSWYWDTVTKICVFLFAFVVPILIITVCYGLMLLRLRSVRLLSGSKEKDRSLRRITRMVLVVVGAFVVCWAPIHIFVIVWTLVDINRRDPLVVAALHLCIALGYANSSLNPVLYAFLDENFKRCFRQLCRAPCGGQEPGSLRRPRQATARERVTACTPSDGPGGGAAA
Experimental: as §1, §2

nociceptin (ORL1) = nociceptin (ORL1) (Homo sapiens, UniProt P41146); assay: Receptor binding nociceptin (ORL1); conditions: radioligand [3H]-nociceptine, read-out: Ki(nM) Compound 1
nociceptin (ORL1), sequence (P41146 whole entry): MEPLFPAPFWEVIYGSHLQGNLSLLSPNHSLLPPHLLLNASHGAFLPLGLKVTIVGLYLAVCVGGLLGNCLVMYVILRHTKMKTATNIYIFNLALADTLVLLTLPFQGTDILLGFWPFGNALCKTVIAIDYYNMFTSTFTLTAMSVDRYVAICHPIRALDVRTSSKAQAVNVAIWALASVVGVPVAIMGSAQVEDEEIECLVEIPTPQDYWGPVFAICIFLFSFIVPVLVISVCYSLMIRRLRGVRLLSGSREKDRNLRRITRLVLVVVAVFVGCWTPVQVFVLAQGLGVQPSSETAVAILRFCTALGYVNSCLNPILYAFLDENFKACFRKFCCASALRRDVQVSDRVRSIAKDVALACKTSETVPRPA
Experimental: as §1, §2

sigma-SG2 = sigma-SG2 (Rattus norvegicus, UniProt Q5U3Y7); assay: Receptor binding sigma-SG2; conditions: radioligand [3H]-DTG, read-out: Ki(nM) Compound 1
sigma-SG2, sequence (Q5U3Y7 whole entry): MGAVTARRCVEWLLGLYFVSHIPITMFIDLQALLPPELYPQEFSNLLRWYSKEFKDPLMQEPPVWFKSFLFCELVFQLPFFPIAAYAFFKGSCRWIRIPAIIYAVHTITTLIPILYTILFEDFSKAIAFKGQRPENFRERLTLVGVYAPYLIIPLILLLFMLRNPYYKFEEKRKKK
Experimental: as §1, §2

bradykinin = bradykinin (Homo sapiens, UniProt P30411); assay: Receptor binding bradykinin; conditions: radioligand [3H]-bradykinin, read-out: Ki(nM) Compound 1
bradykinin, sequence (P30411 whole entry): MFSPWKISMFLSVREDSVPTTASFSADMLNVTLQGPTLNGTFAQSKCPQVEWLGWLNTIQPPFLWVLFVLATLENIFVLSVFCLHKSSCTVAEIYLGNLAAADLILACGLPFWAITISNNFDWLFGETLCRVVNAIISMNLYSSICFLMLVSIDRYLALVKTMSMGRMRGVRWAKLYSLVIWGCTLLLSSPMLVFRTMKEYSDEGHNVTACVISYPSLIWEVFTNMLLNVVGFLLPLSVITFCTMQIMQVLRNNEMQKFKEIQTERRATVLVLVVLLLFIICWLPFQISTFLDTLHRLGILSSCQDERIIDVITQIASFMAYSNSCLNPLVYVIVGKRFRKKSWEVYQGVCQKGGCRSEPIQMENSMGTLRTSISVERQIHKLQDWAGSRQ
Experimental: as §1, §2

Endothelin-ETA = Endothelin-ETA (Homo sapiens, UniProt P25101); assay: Receptor binding Endothelin-ETA; conditions: radioligand [125I]-endothelin-1, read-out: Ki(nM) Compound 1
Experimental: as §1, §2

Neurokinin-NK1 = Neurokinin-NK1 (Homo sapiens, UniProt P25103); assay: Receptor binding Neurokinin-NK1; conditions: radioligand [3H]-substance P, read-out: Ki(nM) Compound 1
Neurokinin-NK1, sequence (P25103 whole entry): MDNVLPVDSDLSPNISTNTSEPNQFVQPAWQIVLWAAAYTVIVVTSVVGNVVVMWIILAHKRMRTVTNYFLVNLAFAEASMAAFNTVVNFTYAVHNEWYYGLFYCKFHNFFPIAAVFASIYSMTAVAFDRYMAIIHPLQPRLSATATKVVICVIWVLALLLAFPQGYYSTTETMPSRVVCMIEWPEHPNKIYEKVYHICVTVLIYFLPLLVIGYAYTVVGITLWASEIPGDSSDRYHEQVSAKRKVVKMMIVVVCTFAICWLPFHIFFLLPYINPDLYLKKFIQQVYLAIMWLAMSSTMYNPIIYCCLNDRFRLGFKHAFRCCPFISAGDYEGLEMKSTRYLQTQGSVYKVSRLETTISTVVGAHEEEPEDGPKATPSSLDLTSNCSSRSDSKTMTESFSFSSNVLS
Experimental: as §1, §2

Neurotensin-NT1 = Neurotensin-NT1 (Homo sapiens, UniProt P30989); assay: Receptor binding Neurotensin-NT1; conditions: radioligand [125I]-neurotensin, read-out: Ki(nM) Compound 1
Neurotensin-NT1, sequence (P30989 whole entry): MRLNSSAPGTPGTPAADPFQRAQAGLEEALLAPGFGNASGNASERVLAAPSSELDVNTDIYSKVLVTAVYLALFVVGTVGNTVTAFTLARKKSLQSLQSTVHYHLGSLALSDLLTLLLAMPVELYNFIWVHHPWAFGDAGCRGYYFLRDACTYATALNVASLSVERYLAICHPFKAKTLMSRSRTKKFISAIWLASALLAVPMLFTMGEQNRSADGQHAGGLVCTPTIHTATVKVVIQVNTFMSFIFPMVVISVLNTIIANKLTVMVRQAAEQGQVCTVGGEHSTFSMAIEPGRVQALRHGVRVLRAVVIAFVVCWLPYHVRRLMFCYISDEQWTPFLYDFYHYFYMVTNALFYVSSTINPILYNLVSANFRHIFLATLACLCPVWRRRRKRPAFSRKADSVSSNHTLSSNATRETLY
Experimental: as §1, §2

Prostaglandin-H2 = Prostaglandin-H2 (Homo sapiens, UniProt P21731); assay: Receptor binding Prostaglandin-H2; conditions: radioligand [3H]-SQ 29548, read-out: Ki(nM) Compound 1
Prostaglandin-H2, sequence (P21731 whole entry): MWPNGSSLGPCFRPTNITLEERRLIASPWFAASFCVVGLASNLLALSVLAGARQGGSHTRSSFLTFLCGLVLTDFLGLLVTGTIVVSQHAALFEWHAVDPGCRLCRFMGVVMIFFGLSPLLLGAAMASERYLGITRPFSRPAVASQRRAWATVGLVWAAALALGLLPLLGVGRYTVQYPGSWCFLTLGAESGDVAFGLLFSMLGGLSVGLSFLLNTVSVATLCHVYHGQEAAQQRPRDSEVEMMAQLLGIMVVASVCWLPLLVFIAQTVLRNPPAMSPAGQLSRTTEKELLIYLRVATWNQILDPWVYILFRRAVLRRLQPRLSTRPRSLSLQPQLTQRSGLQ
Experimental: as §1, §2

Structure (SMILES): Nc1cc2cccc(N3CCNCC3)c2oc1=O [Compound 1, 3-amino-8-(1-piperazinyl)-2H-1-benzopyran-2-one]
- Mean number of turns (rotations contralateral to the direction of a 6-OHDA lesion) ([1]; 0.3 mg/kg p.o.): 20.925
- Mean number of turns (rotations contralateral to the direction of a 6-OHDA lesion) ([1]; 0.5 mg/kg p.o.): 22.988
- Mean number of turns (rotations contralateral to the direction of a 6-OHDA lesion) ([1]; 0.75 mg/kg p.o.): 106.35*
- Mean number of turns (rotations contralateral to the direction of a 6-OHDA lesion) ([1]; 1.0 mg/kg p.o.): 77.1*
- minimal effective dose, contralateral rotation ([1]; p.o.): 0.75 mg/kg
- ED50 (5-HT1A): 0.12 mg/kg
- Ki (5-HT2A): 630 nM
- Ki (5-HT4): > 1000 nM
- Ki (α1A-adrenergic): 630 nM
- Ki (NAreuptake): > 1000 nM
- Ki (Muscarine-M1): > 1000 nM
- Ki (δ-opiate): > 1000 nM
- Ki (nociceptin (ORL1)): > 1000 nM
- Ki (sigma-SG2): > 1000 nM
- Ki (bradykinin): > 1000 nM
- Ki (Endothelin-ETA): > 1000 nM
- Ki (Neurokinin-NK1): > 1000 nM
- Ki (Neurotensin-NT1): > 1000 nM
- Ki (Prostaglandin-H2): > 1000 nM
